Read-outs that look alike come from different tables or passages of the source.
Settings: 1 mg per mL liver microsome protein, 1 μM compound, 37° C., compared to the non-isotopically enriched drug
Description: Liver microsomal stability assays were conducted at 1 mg per mL liver microsome protein with an NADPH-generating system in 2% NaHCO3 (2.2 mM NADPH, 25.6 mM glucose 6-phosphate, 6 units per mL glucose 6-phosphate dehydrogenase and 3.3 mM MgCl2). Test compounds were prepared as solutions in 20% acetonitrile-water and added to the assay mixture (final assay concentration 1 μM) and incubated at 37° C. Final concentration of acetonitrile in the assay should be <1%. Aliquots (50 μL) were taken out at times 0, 15, 30, 45, and 60 min, and diluted with ice cold acetonitrile (200 μL) to stop the reactions. Samples were centrifuged at 12,000 RPM for 10 min to precipitate proteins. Supernatants were transferred to micro centrifuge tubes and stored for LC/MS/MS analysis of the degradation half-life of the test compounds.

[2H]C([2H])(Cl)C([2H])([2H])N(C([2H])([2H])C([2H])([2H])Cl)P1(=O)NCCCO1 (stereo not shown) [Example 1, d8-Bis-(2-chloro-ethyl)-(2-oxo-2λ^5-[1,3,2]oxazaphosphinan-2yl)-amine]
% increase of HLM degradation half-life (column −25%-0%): + (−25%-0%)

[2H]C1([2H])CCNP(=O)(N(CCCl)CCCl)O1 (stereo not shown) [Example 2, Bis-(2-chloro-ethyl)-(d2-2-oxo-2λ^5-[1,3,2]oxazaphosphinan-2yl)-amine]
% increase of HLM degradation half-life (50%-150%): + (50%-150%)

[2H]C1([2H])CCNP(=O)(N(C([2H])([2H])C([2H])([2H])Cl)C([2H])([2H])C([2H])([2H])Cl)O1 (stereo not shown) [Example 3, d8-Bis-(2-chloro-ethyl)-(d2-2-oxo-2λ^5-[1,3,2]oxazaphosphinan-2yl)amine]
% increase of HLM degradation half-life (50%-150%): + (50%-150%)

[2H]C1([2H])CCOP(=O)(N(C([2H])([2H])C([2H])([2H])Cl)C([2H])([2H])C([2H])([2H])Cl)N1 (stereo not shown) [Example 5, d8-Bis-(2-chloro-ethyl)-(2-oxo-2λ^5-[1,3,2]oxazaphosphinan-2yl)-d2-amine]
% increase of HLM degradation half-life (0%-50%): + (0%-50%)

Source: US20090202540A1, “SUBSTITUTED OXAZAPHOSPHORINES” (Auspex Pharmaceuticals, Inc., priority 2008, published 2009)
